Measured values taken from ChEMBL document CHEMBL1201862, “PubChem BioAssay data set” (2004).
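Tested at 5 concentrations; 48 h exposure; 96-well plates; endpoints linearly interpolated, else capped at highest concentration. GI50 = concentration required for 50% inhibition of growth.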 Activity calls are given as the source filed them. Rule as the data show it: active = GI50 up to about 1.1 µM and inactive = higher.

Columns and labels:
Experiment in all cases: NCI-60 cell line screen, 48 h
OVCAR-3 = system: OVCAR-3
SK-MEL-5 = system: SK-MEL-5
CCRF-CEM = system: CCRF-CEM
PC-3 = system: PC-3
SK-OV-3 = system: SK-OV-3
SF-295 = system: SF-295
Hs-578T = system: Hs-578T
BT-549 = system: BT-549
T47D = system: T47D
SF-268 = system: SF-268
IGROV-1 = system: IGROV-1
COLO 205 = system: COLO 205
SR = system: SR
KM12 = system: KM12
M14 = system: M14
CAKI-1 = system: CAKI-1
SK-MEL-2 = system: SK-MEL-2
HOP-92 = system: HOP-92
A498 = system: A498

Measured: GI50

O=c1[nH]c(=O)n(C2CC(O)C(CO)O2)cc1OCCc1ccccc1 (centres undefined)
inactive: OVCAR-3 > 100 µM | SK-MEL-5 > 100 µM | CCRF-CEM > 100 µM | PC-3 > 100 µM | SK-OV-3 > 100 µM | SF-295 > 100 µM | Hs-578T > 100 µM | BT-549 > 100 µM | T47D > 100 µM | SF-268 > 100 µM | IGROV-1 > 100 µM | COLO 205 > 100 µM | SR > 100 µM | KM12 > 100 µM | M14 > 100 µM | CAKI-1 > 100 µM

CCOC(=O)/C=C(\C(=O)OCC)n1cc(C)c(=O)n(Cc2cnnn2COCCOC(C)=O)c1=O
inactive: SK-MEL-2 19.1 µM | OVCAR-3 11.7 µM | SK-MEL-5 19.7 µM | CCRF-CEM 1.75 µM | HOP-92 1.92 µM | PC-3 16 µM | SK-OV-3 55.7 µM | SF-295 25.8 µM | Hs-578T 14.3 µM | BT-549 5.52 µM | T47D 5.78 µM | SF-268 15.5 µM | IGROV-1 8.45 µM | COLO 205 2.07 µM | KM12 16.4 µM | M14 20.7 µM | A498 20.8 µM | CAKI-1 3.13 µM

C=CC(O)(CBr)CCC(Br)C(C)(C)Cl (centres undefined)
inactive: SK-MEL-2 > 10 µM | OVCAR-3 > 10 µM | SK-MEL-5 > 10 µM | CCRF-CEM > 10 µM | HOP-92 > 10 µM | PC-3 > 10 µM | SK-OV-3 > 10 µM | SF-295 > 10 µM | Hs-578T > 10 µM | BT-549 > 10 µM | T47D > 10 µM | SF-268 > 10 µM | IGROV-1 > 10 µM | COLO 205 > 10 µM | KM12 > 10 µM | M14 > 10 µM | A498 > 10 µM | CAKI-1 > 10 µM

CC(C)Oc1c(C2(c3ccccc3)SCCCS2)c(=O)c1=O
inactive: SK-MEL-2 > 100 µM | OVCAR-3 > 100 µM | SK-MEL-5 > 100 µM | CCRF-CEM 45.6 µM | HOP-92 > 100 µM | PC-3 > 100 µM | SK-OV-3 > 100 µM | SF-295 > 100 µM | Hs-578T 84.7 µM | BT-549 > 100 µM | T47D > 100 µM | SF-268 > 100 µM | IGROV-1 > 100 µM | COLO 205 > 100 µM | KM12 50.2 µM | M14 > 100 µM | A498 > 100 µM | CAKI-1 > 100 µM

Cn1c(COC(=O)NC2CCCCC2)c(COC(=O)NC2CCCCC2)c2ccc3cc(C=O)ccc3c21
inactive: SK-MEL-2 > 100 µM | OVCAR-3 > 100 µM | SK-MEL-5 > 100 µM | CCRF-CEM > 100 µM | HOP-92 32 µM | PC-3 > 100 µM | SK-OV-3 > 100 µM | SF-295 > 100 µM | Hs-578T 35.3 µM | BT-549 > 100 µM | T47D > 100 µM | SF-268 37.5 µM | IGROV-1 > 100 µM | COLO 205 > 100 µM | KM12 > 100 µM | M14 > 100 µM | A498 > 100 µM | CAKI-1 > 100 µM

Clc1cc2nn(C3CCCCO3)nc2cc1Cl (centres undefined)
inactive: SK-MEL-2 > 100 µM | OVCAR-3 > 100 µM | SK-MEL-5 > 100 µM | CCRF-CEM > 100 µM | PC-3 > 100 µM | SK-OV-3 > 100 µM | SF-295 > 100 µM | Hs-578T > 100 µM | BT-549 > 100 µM | T47D > 100 µM | IGROV-1 > 100 µM | COLO 205 > 100 µM | SR > 100 µM | KM12 > 100 µM | M14 > 100 µM | CAKI-1 > 100 µM
